According to patent US8598153B2, “Method of treatment using fatty acid synthesis inhibitors” (Merck Sharp & Dohme Corp., priority 2006, dated 2013):

Tests used:
rat FAS = molecular target: T1, rat FAS (Rattus norvegicus, UniProt P12785); experiment: FAS inhibitory activity in cell free Flashplate assay (formation of 3H-palmitate), rat FAS; assay type: biochemical; conditions: rat liver FAS, cell free flash plate assay
T1 construct: The clarified supernatant was fractionated by ammonium sulfate precipitation; from tissue; host or cells: rat liver (fasted and high carbohydrate re-fed rats)
Method: (§1) Compounds with formula I (platensimycin) and II (platencin) were titrated against human or rat FAS using the Flashplate assay. Animal FAS activity was assayed radiochemically for the formation of ^3H-palmitate. The assay buffer contained 200 mM KPi, pH 7, 2 mM EDTA, 2.5 mM DTT, 5 μM Acetyl CoA (^3H-acetyl-CoA, Specific Activity=0.3 Ci/mmole), 21 μM malonyl-CoA, and 20 uM NADPH in a final reaction volume of 200 μl Assays are performed in 96-well Phospholipid coated FlashPlates (Perkin Elmer). The reaction was initiated by adding FAS (0.17 mUnits/well, 1 Unit=1μ mole of NADPH consumed/minute). The plates were incubated at RT for 5 minutes before adding 6 μl of perchloric acid to stop the reaction. The plates sat at RT for at least 3 hours, preferably overnight, before counting. Background was determined from wells without malonyl CoA. The source of Human FAS was SkBr3 cells. Cell extracts were processed by ammonium sulfate precipitation followed by DEAE chromatography essentially as described by Jayakumar et al., 1995 (Jayakumar A, Tai M H, Huang W Y, al-Feel W, Hsu M, Abu-Elheiga L, Chirala S S, Wakil S J. Human fatty acid synthase: properties and molecular cloning. Proc Natl Acad Sci USA. 1995 Sep. 12; 92(19):8695-9). […]

[1] = tested on: fatty acid synthesis in rat hepatocytes; experiment: Fatty acid synthesis in rat hepatocytes in vitro (C14-acetate incorporation); assay type: cell-based; conditions: Hepatocyte, primary rat hepatocytes, read-out: Rat IC50 μM, fatty acid synthesis inhibitory activity
Description: 115: 1030-1038 (2003) with modifications. […] The plates were gassed and sealed.

human FAS = molecular target: T2, human FAS (Homo sapiens, UniProt P49327); experiment: FAS inhibitory activity in cell free Flashplate assay (formation of 3H-palmitate), human FAS; assay type: biochemical; conditions: human FAS from SkBr3 cells, cell free flash plate assay
T2 construct: Cell extracts were processed by ammonium sulfate precipitation followed by DEAE chromatography; endogenous in cells; host or cells: SkBr3 human breast cancer cells (endogenous FAS, partially purified)
Method: as §1

[2] = tested on: fatty acid oxidation in rat hepatocytes
Method: Fatty acid oxidation in the hepatocytes was determined the conversion of C14-oleic acid to soluble acid products as described (Jiang G, Li Z, Liu F, Ellsworth K, Dallas-Yang Q, Wu M, Ronan J, Essau C, Murphy C, Szalkowski D, Bergeron R, Doebber T and Zhang B. Prevention of obesity in mice by antisense oligonucleotide inhibitors of stearoyl-CoA desaturase-1. J. Clin. Invest. 115: 1030-1038 (2003); Mannaerts G P, Debeer L J, Thomas J, ans DeSchepper P J. Mitochondrial and proxisomal fatty acid oxidation in liver homogenates and isolated hepatocytes from control and clofibrate-treated rats. J. Biol. Chem. 254:4585-4595 (1979)) with modifications. Hepatocytes seeded overnight and washed twice with PBS and then pre-incubated with compounds in 5 μl of DMSO in 2 ml medium199 plus 0.25% bovine serum albumin for 60 min. C14-oleic acid 0.25 μCi (NEN) was added to each well. The plates were gassed and sealed. After one hr incubation, 1 ml of medium was removed, mixed with 100 μl of 10% BSA and then 100 μl 60% HClO4. After centrifugation, 1 ml of the solution was counted the level of soluble acid products.

T2 sequence (P49327 whole entry): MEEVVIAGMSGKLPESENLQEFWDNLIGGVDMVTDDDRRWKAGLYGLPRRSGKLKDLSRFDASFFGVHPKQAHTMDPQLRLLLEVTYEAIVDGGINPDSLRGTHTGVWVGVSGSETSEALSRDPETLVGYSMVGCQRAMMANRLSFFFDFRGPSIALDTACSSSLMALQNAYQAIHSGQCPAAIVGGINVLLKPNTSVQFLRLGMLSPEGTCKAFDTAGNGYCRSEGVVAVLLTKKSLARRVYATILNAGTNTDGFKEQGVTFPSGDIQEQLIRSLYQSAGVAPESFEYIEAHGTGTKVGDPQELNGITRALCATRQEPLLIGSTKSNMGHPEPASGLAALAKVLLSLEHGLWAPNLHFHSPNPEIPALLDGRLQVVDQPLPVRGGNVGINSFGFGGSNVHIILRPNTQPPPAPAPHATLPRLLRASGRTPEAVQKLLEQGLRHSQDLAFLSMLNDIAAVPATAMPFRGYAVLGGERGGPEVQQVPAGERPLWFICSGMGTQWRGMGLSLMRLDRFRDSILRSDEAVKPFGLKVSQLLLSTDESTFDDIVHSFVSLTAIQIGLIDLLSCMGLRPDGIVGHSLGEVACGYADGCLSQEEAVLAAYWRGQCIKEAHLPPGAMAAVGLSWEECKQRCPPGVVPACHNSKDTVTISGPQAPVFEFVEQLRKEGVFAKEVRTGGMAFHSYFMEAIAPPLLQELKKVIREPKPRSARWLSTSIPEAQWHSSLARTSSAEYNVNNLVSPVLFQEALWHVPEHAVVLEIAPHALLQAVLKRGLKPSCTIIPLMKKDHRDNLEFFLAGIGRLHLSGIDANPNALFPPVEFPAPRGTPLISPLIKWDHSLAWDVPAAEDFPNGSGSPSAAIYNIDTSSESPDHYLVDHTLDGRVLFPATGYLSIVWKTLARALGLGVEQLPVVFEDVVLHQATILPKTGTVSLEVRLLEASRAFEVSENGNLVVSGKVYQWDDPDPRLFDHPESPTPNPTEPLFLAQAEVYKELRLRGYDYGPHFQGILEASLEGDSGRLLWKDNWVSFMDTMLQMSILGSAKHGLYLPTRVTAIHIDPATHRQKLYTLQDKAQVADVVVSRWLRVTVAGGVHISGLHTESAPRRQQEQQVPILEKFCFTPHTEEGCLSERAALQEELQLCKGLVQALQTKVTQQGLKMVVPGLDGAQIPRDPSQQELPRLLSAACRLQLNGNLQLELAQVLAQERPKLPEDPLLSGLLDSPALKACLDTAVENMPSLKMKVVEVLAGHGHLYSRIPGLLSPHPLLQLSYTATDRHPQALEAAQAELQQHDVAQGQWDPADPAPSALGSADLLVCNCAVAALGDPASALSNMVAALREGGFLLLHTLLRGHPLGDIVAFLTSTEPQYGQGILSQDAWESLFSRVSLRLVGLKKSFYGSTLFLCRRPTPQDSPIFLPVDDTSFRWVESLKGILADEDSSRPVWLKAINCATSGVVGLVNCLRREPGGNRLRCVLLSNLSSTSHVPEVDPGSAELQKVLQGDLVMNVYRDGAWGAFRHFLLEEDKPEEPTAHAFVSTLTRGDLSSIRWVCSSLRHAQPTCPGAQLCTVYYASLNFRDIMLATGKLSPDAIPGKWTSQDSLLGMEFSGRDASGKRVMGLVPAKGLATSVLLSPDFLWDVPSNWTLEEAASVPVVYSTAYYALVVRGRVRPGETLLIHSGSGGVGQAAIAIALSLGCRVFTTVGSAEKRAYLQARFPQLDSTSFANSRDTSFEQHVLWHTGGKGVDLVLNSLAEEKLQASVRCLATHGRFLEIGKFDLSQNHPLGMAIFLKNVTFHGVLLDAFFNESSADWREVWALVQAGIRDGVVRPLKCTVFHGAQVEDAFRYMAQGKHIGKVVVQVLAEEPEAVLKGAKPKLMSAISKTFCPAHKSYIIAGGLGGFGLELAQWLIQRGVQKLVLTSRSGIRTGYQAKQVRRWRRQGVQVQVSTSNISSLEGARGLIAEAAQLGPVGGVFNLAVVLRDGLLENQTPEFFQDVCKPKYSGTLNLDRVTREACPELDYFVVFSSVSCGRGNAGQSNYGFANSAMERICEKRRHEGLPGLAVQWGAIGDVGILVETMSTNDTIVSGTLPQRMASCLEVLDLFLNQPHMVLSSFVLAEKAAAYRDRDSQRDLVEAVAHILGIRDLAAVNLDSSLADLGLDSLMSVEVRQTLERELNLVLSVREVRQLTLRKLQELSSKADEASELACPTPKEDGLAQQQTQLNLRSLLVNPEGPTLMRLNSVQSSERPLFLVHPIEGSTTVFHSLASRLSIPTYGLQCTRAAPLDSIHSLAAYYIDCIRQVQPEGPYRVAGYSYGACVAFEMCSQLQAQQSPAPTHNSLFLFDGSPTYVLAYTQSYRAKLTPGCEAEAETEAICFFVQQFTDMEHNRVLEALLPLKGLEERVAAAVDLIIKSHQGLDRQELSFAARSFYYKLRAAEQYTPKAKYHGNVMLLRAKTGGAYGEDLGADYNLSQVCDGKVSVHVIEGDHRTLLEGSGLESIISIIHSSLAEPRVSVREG
T1 sequence (P12785 whole entry): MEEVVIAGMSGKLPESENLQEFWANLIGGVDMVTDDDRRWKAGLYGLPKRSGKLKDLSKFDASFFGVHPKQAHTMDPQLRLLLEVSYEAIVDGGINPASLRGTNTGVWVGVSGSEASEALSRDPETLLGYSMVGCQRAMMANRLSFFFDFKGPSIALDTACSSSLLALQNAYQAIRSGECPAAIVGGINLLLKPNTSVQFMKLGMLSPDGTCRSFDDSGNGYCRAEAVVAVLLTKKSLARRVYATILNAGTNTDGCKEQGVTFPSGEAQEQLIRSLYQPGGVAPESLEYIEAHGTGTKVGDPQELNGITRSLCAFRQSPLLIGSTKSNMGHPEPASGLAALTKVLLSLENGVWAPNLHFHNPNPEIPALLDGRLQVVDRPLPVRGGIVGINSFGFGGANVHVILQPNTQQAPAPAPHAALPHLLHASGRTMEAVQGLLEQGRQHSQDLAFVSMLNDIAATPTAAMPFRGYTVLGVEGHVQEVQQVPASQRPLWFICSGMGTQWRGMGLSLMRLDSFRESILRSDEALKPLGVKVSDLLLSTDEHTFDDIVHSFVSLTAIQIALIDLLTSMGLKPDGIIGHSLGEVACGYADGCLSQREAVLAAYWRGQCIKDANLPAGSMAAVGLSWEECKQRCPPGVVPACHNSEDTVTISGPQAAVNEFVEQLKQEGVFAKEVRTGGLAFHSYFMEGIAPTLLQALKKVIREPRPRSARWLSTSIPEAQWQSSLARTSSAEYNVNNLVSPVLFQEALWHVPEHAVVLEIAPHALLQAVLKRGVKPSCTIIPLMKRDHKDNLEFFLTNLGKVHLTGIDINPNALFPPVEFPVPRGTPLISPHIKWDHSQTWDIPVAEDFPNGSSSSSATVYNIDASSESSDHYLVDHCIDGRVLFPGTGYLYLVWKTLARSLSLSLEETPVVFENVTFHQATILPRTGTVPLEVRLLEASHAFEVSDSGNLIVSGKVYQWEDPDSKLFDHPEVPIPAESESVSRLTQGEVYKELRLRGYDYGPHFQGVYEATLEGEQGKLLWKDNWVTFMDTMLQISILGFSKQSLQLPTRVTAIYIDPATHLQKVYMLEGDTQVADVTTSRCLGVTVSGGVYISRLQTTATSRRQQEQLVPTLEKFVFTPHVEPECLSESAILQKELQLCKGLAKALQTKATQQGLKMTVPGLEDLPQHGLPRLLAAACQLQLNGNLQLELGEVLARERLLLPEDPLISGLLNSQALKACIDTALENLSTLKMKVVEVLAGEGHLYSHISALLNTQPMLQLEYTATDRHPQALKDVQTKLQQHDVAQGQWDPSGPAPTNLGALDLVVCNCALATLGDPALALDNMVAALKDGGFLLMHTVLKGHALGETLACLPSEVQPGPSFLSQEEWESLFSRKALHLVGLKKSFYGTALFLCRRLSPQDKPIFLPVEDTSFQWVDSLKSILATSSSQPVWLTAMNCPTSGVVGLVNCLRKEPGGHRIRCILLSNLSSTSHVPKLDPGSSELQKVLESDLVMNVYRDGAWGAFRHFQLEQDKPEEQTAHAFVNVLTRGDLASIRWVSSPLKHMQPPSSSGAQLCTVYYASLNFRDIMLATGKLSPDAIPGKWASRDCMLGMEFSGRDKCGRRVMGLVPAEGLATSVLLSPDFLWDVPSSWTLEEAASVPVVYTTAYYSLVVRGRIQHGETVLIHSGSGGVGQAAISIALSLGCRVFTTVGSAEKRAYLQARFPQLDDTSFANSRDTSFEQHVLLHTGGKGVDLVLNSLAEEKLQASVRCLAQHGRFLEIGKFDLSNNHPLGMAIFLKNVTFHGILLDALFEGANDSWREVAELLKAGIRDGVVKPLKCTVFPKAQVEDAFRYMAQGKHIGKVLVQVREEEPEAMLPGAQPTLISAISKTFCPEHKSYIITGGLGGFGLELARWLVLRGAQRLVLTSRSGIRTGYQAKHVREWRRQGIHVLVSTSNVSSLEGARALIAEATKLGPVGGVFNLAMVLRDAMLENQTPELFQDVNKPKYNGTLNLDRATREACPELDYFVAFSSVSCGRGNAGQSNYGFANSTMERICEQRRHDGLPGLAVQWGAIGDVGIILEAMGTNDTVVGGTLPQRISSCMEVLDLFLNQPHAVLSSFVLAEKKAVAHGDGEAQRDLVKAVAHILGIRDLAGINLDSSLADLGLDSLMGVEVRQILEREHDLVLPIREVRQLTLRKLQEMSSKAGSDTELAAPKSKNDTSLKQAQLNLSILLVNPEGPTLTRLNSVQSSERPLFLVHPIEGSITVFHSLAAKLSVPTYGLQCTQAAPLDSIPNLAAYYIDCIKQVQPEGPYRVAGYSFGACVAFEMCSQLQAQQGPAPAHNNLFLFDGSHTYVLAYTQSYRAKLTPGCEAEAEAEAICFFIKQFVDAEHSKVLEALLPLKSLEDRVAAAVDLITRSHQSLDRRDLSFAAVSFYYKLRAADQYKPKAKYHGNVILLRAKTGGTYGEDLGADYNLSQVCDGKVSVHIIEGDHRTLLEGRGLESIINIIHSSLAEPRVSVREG

| SMILES | IC50 (rat FAS) | IC50 [1] | IC50 (human FAS) | Inhibition of Oxidation of Fatty Acids, Rat Hepatocyte (% of control at 10 uM) [2] |
| --- | --- | --- | --- | --- |
| C[C@]12C[C@@]34C=CC(=O)[C@@](C)(CCC(=O)Nc5c(O)ccc(C(=O)O)c5O)C3[C@H](CC1C4)O2 (stereo partly shown) [Formula I, platensimycin] | 0.18 µM | 0.093 µM | 0.3 µM | 59.7 % of control |
| C=C1C[C@@]23C=CC(=O)[C@@](C)(CCC(=O)Nc4c(O)ccc(C(=O)O)c4O)[C@@H]2C[C@@H]1CC3 [Formula II, platencin] | – | 3.24 µM | 6.3 µM | 66.0 % of control |
